The results in this text go back to patent publication US20240391877A1, “COMPOUND AS INHIBITOR OF COMPLEMENT FACTOR D, AND PHARMACEUTICAL COMPOSITION AND USE THEREOF” (WUHAN CREATERNA SCIENCE AND TECHNOLOGY CO.,LTD., priority 2021, published 2024).

Data set [1] relates to hemolysis of rabbit erythrocytes. Nature of the data set: Rabbit erythrocyte hemolysis assay to evaluate inhibitory activity on the bypass pathway. The format is cell-based. As to conditions: Oryctolagus cuniculus, 0.5 h, 48% NHP or 26.4% NHS, 37° C. 30 min, absorbance 415 nm. The source says:
2. Rabbit Erythrocyte Hemolysis Assay to Evaluate the Inhibitory Activity of Compounds on the Bypass Pathway
Normal Human Serum, NHS (collected from healthy people), Normal Human Plasma, NHP (Shanghai Yuduo), 96-well ELISA plate (Jet Biofil), Japanese big-eared white rabbit (Wuhan WQJX), Alsever's solution (Procell), centrifuge (Thermo, PICO17), thermostatic shaker (Shanghai Fuma), destaining shaker (Beijing Liuyi), cell counter (Invitrogen, Counter Countess II) (GVB^o, EGTA, MgCl2, NaOH, microplate reader, microplate thermostatic shaker, and pipette are equivalent to those in the experiment 1).
48% NHP: 100% NHP was diluted to 48% with buffer;
26.4% NPS: 100% NHS was diluted to 26.4% with buffer;
rabbit erythrocyte suspension: blood was taken from rabbit ear marginal vein, anticoagulated with Alsever's solution at a ratio of 1:1, stored in portions at 4° C., and could be stored for 4 weeks. Before use, the suspension was centrifuged at 500 g for 5 min to discard the Alsever's solution, washed three times with an equal volume of buffer and centrifuged at 500 g for 5 min, and finally the density was adjusted to 6×10^8 cells/mL with buffer.
In the 96-well ELISA plate, the experimental group was added with 50 μL of 48% NHP or 26.4% NHS and 50 μL of compound solution; the positive control group was added with 50 μL of 48% NHP or 26.4% NHS and 50 μL of buffer containing 0.2% DMSO; the blank control group was added with 50 μL of 48% inactivated NHP or 26.4% inactivated NHS and 0.2% DMSO buffer; the H2O group was added with 100 μL of double-distilled water; incubated at 37° C. for 15 min; 20 μL of rabbit erythrocyte suspension was added to each well and incubated on a shaker at 37° C. for 30 min; centrifuged at 2000 g (3380 rpm) for 5 min, and […] of supernatant was transferred to a new 96-well ELISA plate, and the absorbance was detected at 415 nm.
The PC group represents 100% hemolysis, and the NC group represents 0% hemolysis.
IC50: half-maximal inhibitory concentration. Data were collected to calculate the log value of hemolysis percentage versus compound concentration, and IC50 values were calculated using GraphPad Prism software.

A further data set deals with T1, complement factor D (Homo sapiens, UniProt P00746).
T1 construct: purchased Complement tech
Put plainly: Complement factor D inhibitory activity (C3b method) in vitro screening; product Bb detected by ELISA. The format is biochemical. As to conditions: factor D + factor B + factor C3b, 37° C., Bb by MicroVue Bb Plus ELISA. The source says: 1. Complement Factor D Inhibitory Activity (C3b Method) In Vitro Screening Experiment
V-bottom plate (AXYGEN), DMSO (Sigma), MicroVue Bb Plus ELISA kit (Quidel), complement factor C3b (abbreviated as factor C3b, Complement tech), complement factor B (abbreviated as factor B, Complement tech), complement factor D (abbreviated as factor D, Complement tech), EDTA (MACKLIN), GVB^o (Complement tech), EGTA (Aladdin), MgCl2 (Aladdin), NaOH (Sinopharm), microplate reader (Molecular Devices, SpectraMax i3x), microplate thermostatic shaker (Thermo, MB100-2A), pipette (Gilson)
0.1 M Mg-EGTA: 3.8 g of EGTA, 0.9521 g of MgCl2, and 0.7 g of NaOH were weighed, and the pH was adjusted to 7.5 with NaOH. Distilled water was added to make up to 100 mL, and the mixture was filtered with a […] sterile needle filter, stored in portions at 4° C.
Buffer: 0.1 M Mg-EGTA solution was diluted 10-fold to 10 mM with GVB^o buffer; • factor B working solution: 1 mg/mL factor B solution (10.75 μM) was diluted 6.7-fold to 1.6 μM with buffer; • factor C3b working solution: 1 mg/mL factor C3b solution (5.68 μM) was diluted 5-fold to […] with buffer; • factor D working solution: 0.1 mg/mL factor D solution (4.17 μM) was diluted 1303-fold to 3.2 nM with buffer.
Note: a. The above dilution multiples are for reference only and are adjusted according to the true concentration labeled on the reagent; • b. factor B: 93 KDa, factor D: 24 KDa, factor C3b: 176 KDa.
Stop solution: An appropriate amount of EDTA powder was weighed, dissolved in a certain amount of GVB^o buffer, and the pH was adjusted to 7.5 with NaOH. The mixture was stirred until clear and prepared into a 10 mM solution.
Compound stock solution: 40 mM compound solution was diluted with DMSO into 1 mM stock solution, and the 1 mM stock solution was diluted 3-fold with DMSO at 8 points to prepare compound stock solutions of various concentrations.
Compound working solution: diluted 250-fold with buffer to obtain compound solutions of various concentrations.
In the V-bottom plate, the experimental group was added with 10 μL of factor D solution and 10 μL of compound solution; the positive control group was added with 10 μL of factor D solution and buffer containing 0.4% DMSO; the blank control group was added with […] containing 0.2% DMSO; incubated at 37° C. for 15 min; the factor B working solution and the factor C3b working solution were mixed homogeneously at a ratio of 1:1; 20 µL of the mixture was added to each well and incubated at 37° C. for 30 min; the reaction was stopped by adding 40 μL of stop solution; the production of product Bb was detected by MicroVue Bb Plus ELISA kit.
1.4.1 The required wells of the ELISA plate were taken out and allowed to return to room temperature, and the remaining ones were repackaged and stored at 4° C.;
1.4.2 the wells were washed twice with 300 μL of 1× wash buffer, and incubated for 1 min at 25° C. for the first wash;
1.4.3 samples were diluted 8-fold with complement specimen diluent, and 100 μL of sample was added to each well and incubated at 25° C. for 30 min;
1.4.4 the liquid in the wells was discarded, and the wells were washed 5 times with 300 μL of 1× wash buffer, and incubated at room temperature for 1 min for the first wash;
1.4.5 50 μL of Bb Plus Conjugate was added to each well and incubated at 25° C. for 30 min;
1.4.6 the liquid in the wells was discarded, and the wells were washed 5 times with 300 μL of 1× wash buffer, and incubated at room temperature for 1 min for the first wash;
1.4.7 100 μL of […] (Substrate Solution) was added to each well and incubated at 25° C. for 15 min;
1.4.8 100 μL of stop solution was added to each well, and the absorbance was detected at 450 nm within 30 min.
1.5.1 Inhibition rate of each drug concentration:
The PC group represents 0% inhibition rate, and the NC group represents 100% inhibition rate. […]
(ELISA stands for enzyme-linked immunosorbent assay.)

Data set [2] is described as follows: In vivo pharmacokinetic study (PK assay on SD rats). As to conditions: Sprague-Dawley, rat, plasma; for AUC(0-t) / Cmax / half-life: 1 mg/kg. As to the method:
3. In Vivo Pharmacokinetic Study of the Compounds of the Present Disclosure
After adaptive domestication, SPF grade SD rats were administered 1 or 3 mg/kg the compounds of the present disclosure by single gavage and tail vein injection, respectively. Plasma was collected at specific time points after administration, and the concentration of compounds in plasma was detected by LC-MS/MS (AB SCIEX Qtrap4500). The PK parameters of each compound were calculated using software to reflect the pharmacokinetic properties of the compounds of the present disclosure in vivo in animals.

SMILES strings stand for the structures.

T1 sequence (P00746 26-253): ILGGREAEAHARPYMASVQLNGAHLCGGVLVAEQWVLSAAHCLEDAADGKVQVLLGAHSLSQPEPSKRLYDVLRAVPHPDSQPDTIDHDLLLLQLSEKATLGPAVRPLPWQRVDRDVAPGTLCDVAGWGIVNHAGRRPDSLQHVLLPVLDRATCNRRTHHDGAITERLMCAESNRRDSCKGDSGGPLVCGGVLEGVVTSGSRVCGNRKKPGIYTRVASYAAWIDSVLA

What is called IC50 is the point on the concentration scale where inhibition reaches its midpoint. In turn, `NCc1cccc(-c2cc(COc3ccccc3CC(=O)O)cc(N3CCC4(CCC4)CC3)c2)c1` [Compound 002, 2-(2-((3′-(aminomethyl)-5-(7-azaspiro[3.5]nonan-7-yl)-[1,1′-biphenyl]-3-yl)methoxy)phenyl)acetic acid] yielded an IC50 in data set [1] of 98 nM.

Turning to `NCc1cccc(-c2cc(COc3ccccc3CC(=O)O)cc(N3CCC4(CCC4)C3)c2)c1` [Compound 003, 2-(2-((3′-(aminomethyl)-5-(6-azaspiro[3.4]octan-6-yl)-[1,1′-biphenyl]-3-yl)methoxy)phenyl)acetic acid], the figures for the IC50 (on complement factor D; in data set [1]) were 3 nM and 43 nM, respectively. Regarding `NCc1cccc(-c2cc(COc3ccccc3CC(=O)O)cc(N3CC4(CCCCC4)C3)c2)c1` [Compound 005, 2-(2-((3′-(aminomethyl)-5-(2-azaspiro[3.5]nonan-2-yl)-[1,1′-biphenyl]-3-yl)methoxy)phenyl)acetic acid], the IC50 in data set [1] was found to be 73 nM. In turn, `NCc1cccc(-c2cc(COc3cc(F)ccc3CC(=O)O)cc(N3CCC4(CC3)CC4)c2)c1` [Compound 009, 2-(2-((3′-(aminomethyl)-5-(6-azaspiro[2.5]octan-6-yl)-[1,1′-biphenyl]-3-yl)methoxy)-4-fluorophenyl)acetic acid] registered an IC50 in data set [1] of 218 nM.

A word on the AUC(0-t): it is exposure summed from dosing to a finite time, without extrapolation to infinity. For orientation: Cmax means the maximum level reached in the sampled fluid or tissue. The term half-life denotes how long it takes for the measured level to halve. For orientation: bioavailability means dose-corrected exposure relative to a reference, in per cent. `NCc1cccc(-c2cc(COc3ccc(F)cc3CC(=O)O)cc(N3CCC4(CC3)CC4)c2)c1` [Compound 010, 2-(2-((3′-(aminomethyl)-5-(6-azaspiro[2.5]octan-6-yl)-[1,1′-biphenyl]-3-yl)methoxy)-5-fluorophenyl)acetic acid]: in data set [2] (IV), the AUC(0-t) worked out at 5660 ng·h/mL, the peak level (Cmax) was 1840 ng/mL and the half-life was 3.31 h. Further, in data set [2] (PO 1 mg/kg vs IV 1 mg/kg, read-out: Oral bioavailability F), the bioavailability was found to be 30.9%. Besides, in data set [2] (PO (3% DMSO + 4% Tween)), the AUC(0-t) was 1750 ng·h/mL, the Cmax amounted to 349 ng/mL and the half-life was 3.18 h. Further, in data set [1], the IC50 amounted to 159 nM. `NCc1cccc(-c2cc(COc3ccccc3CC(=O)O)cc(N3CCC4(COC4)C3)c2)c1` [Compound 015, 2-(2-((3′-(aminomethyl)-5-(2-oxa-6-azaspiro[3.4]octan-6-yl)-[1,1′-biphenyl]-3-yl)methoxy)phenyl)acetic acid] yielded an IC50 in data set [1] of 7 nM. The same measure, in the same setting: the result for `NCc1cccc(-c2cc(COc3ccccc3CC(=O)O)c(F)c(N3CCC4(CC3)COC4)c2)c1` [Compound 026, 2-(2-((3′-(aminomethyl)-4-fluoro-5-(2-oxa-7-azaspiro[3.5]nonan-7-yl)-[1,1′-biphenyl]-3-yl)methoxy)phenyl)acetic acid] reads 16 nM. In the case of `NCc1cccc(-c2cc(COc3c(F)cccc3CC(=O)O)cc(N3CCC4(CC3)COC4)c2)c1` [Compound 028, 2-(2-((3′-(aminomethyl)-5-(2-oxa-7-azaspiro[3.5]nonan-7-yl)-[1,1′-biphenyl]-3-yl)methoxy)-3-fluorophenyl)acetic acid], the IC50 in data set [1] was determined as 58 nM. In turn, `CC(N)c1cccc(-c2cc(COc3ccccc3CC(=O)O)cc(N3CCOC4(CC4)C3)c2)c1` (stereo not drawn) [Compound 035] yielded an IC50 in data set [1] of 183 nM. On the same count and under the same terms, the result for `CC(N)c1cccc(-c2cc(COc3ccccc3CC(=O)O)cc(N3CCC4(CCOC4)CC3)c2)c1` (stereo not drawn) [Compound 036] reads 44 nM; that for `CC(N)c1cccc(-c2cc(COc3ccccc3CC(=O)O)cc(N3CCC4(CCOCC4)CC3)c2)c1` (stereo not drawn) [Compound 038], 206 nM.

For `CC(N)c1cccc(-c2cc(COc3ccccc3CC(=O)O)cc(N3CCC4(CCCOC4)CC3)c2)c1` (stereo not drawn) [Compound 039], inhibition in data set [1] was half-maximal at 127 nM (IC50). Same read-out and setting: with `CC(N)c1cccc(-c2cc(COc3ccccc3CC(=O)O)cc(N3CC4(CCOC4)C3)c2)c1` (stereo not drawn) [Compound 040] the figure was 138 nM; with `CC(N)c1cccc(-c2cc(COc3ccccc3CC(=O)O)cc(N3CCC4(CCO4)C3)c2)c1` (stereo not drawn) [Compound 041, 2-(2-((3′-(1-aminoethyl)-5-(1-oxa-6-azaspiro[3.4]octan-6-yl)-[1,1′-biphenyl]-3-yl)methoxy)phenyl)acetic acid], 151 nM. Same read-out and setting: the result for `CC(N)c1cccc(-c2cc(COc3ccccc3CC(=O)O)cc(N3CCC4(CC3)COC4)c2)c1` (stereo not drawn) [Compound 042] reads 50 nM; that for `CC(N)c1cccc(-c2cc(COc3ccccc3CC(=O)O)cc(N3CCC4(CCO4)CC3)c2)c1` (stereo not drawn) [Compound 043], 93 nM; that for `NC(CF)c1cccc(-c2cc(COc3ccccc3CC(=O)O)cc(N3CCC4(CC3)COC4)c2)c1` (stereo not drawn) [Compound 044, 2-(2-((3′-(1-amino-2-fluoroethyl)-5-(2-oxa-7-azaspiro[3.5]nonan-7-yl)-[1,1′-biphenyl]-3-yl)methoxy)phenyl)acetic acid], 133 nM.

For the compound `CC(N)c1cccc(-c2cc(COc3ccccc3CC(=O)O)cc(N3CCC4(CCOCC4)CC3)c2)c1F` (stereo not drawn) [Compound 055, 2-(2-((3′-(1-aminoethyl)-2′-fluoro-5-(3-oxa-9-azaspiro[5.5]undecan-9-yl)-[1,1′-biphenyl]-3-yl)methoxy)phenyl)acetic acid], the IC50 in data set [1] was 117 nM. `CC(N)c1cccc(-c2cc(COc3ccccc3CC(=O)O)cc(N3CCC4(CCCOC4)CC3)c2)c1F` (stereo not drawn) [Compound 056, 2-(2-((3′-(1-aminoethyl)-2′-fluoro-5-(2-oxa-9-azaspiro[5.5]undecan-9-yl)-[1,1′-biphenyl]-3-yl)methoxy)phenyl)acetic acid]: the IC50 in data set [1] worked out at 70 nM.
